From the supplement of paper PMC11061612

Assays:
Assay in all cases: combination Emax (second highest fraction inhibited in the dose matrix, 72 h); higher = more inhibition; extreme values may be limits of the assay
[1] = tested on: HuP-T4 (Pancreatic Carcinoma)
Procedure, shortened: (§1)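 Bliss excess equals the observed combination effect minus the expected value EA + EB − EA·EB, where EA and EB are the effects of each agent alone. Combination Emax is the second-highest inhibition within the matrix. Inhibition was scaled from CellTiter-Glo 2.0 luminescence, with 0 set by vehicle wells and 1 by blank wells, after 72 hours of two-drug dosing of cells plated in 1536-well plates.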

[2] = tested on: MFE-296 (Endometrial Carcinoma)
Procedure, shortened: as §1

[3] = tested on: LU-135 (Small Cell Lung Carcinoma)
Procedure, shortened: as §1

[4] = tested on: TCCSUP (Bladder Carcinoma)
Procedure, shortened: as §1

[5] = tested on: DEL (T-Cell Non-Hodgkin's Lymphoma)
Procedure, shortened: as §1

[6] = tested on: KYSE-520 (Esophageal Squamous Cell Carcinoma)
Procedure, shortened: as §1

[7] = tested on: LNCaP-Clone-FGC (Prostate Carcinoma)
Procedure, shortened: as §1

[8] = tested on: RC-K8 (B-Cell Non-Hodgkin's Lymphoma)
Procedure, shortened: as §1

[9] = tested on: OVCA420 (Ovarian Carcinoma)
Procedure, shortened: as §1

ES4 (Ewing's Sarcoma) = tested on: ES4 (Ewing's Sarcoma)
Procedure, shortened: as §1

[10] = tested on: Daoy (Other Solid Carcinomas)
Procedure, shortened: as §1

[11] = tested on: TE-15 (Esophageal Squamous Cell Carcinoma)
Procedure, shortened: as §1

KELLY (Neuroblastoma) = tested on: KELLY (Neuroblastoma)
Procedure, shortened: as §1

[12] = tested on: ME-1 (Acute Myeloid Leukemia)
Procedure, shortened: as §1

HOS (Osteosarcoma) = tested on: HOS (Osteosarcoma)
Procedure, shortened: as §1

[13] = tested on: CCRF-CEM (T-Lymphoblastic Leukemia)
Procedure, shortened: as §1

[14] = tested on: Calu-3 (Lung Adenocarcinoma)
Procedure, shortened: as §1

[15] = tested on: TE-9 (Esophageal Squamous Cell Carcinoma)
Procedure, shortened: as §1

[16] = tested on: CaR-1 (Colorectal Carcinoma)
Procedure, shortened: as §1

[17] = tested on: NCI-H2085 (Non-Small Cell Lung Carcinoma)
Procedure, shortened: as §1

SMILES | combination Emax [1] | combination Emax [2] | combination Emax [3] | combination Emax [4] | combination Emax [5] | combination Emax [6] | combination Emax [7] | combination Emax [8] | combination Emax [9] | combination Emax (ES4 (Ewing's Sarcoma)) | combination Emax [10] | combination Emax [11] | combination Emax (KELLY (Neuroblastoma)) | combination Emax [12] | combination Emax (HOS (Osteosarcoma)) | combination Emax [13] | combination Emax [14] | combination Emax [15] | combination Emax [16] | combination Emax [17]
COc1nnc2ccc(N3CCC(c4ccc(OCCN5CCN(C)C(=O)[C@H]5C)cc4)CC3)nn12 [AZD5153] + CN(CC[C@H](CSC1=CC=CC=C1)NC2=C(C=C(C=C2)S(=O)(=O)NC(=O)C3=CC=C(C=C3)N4CCC(CC4)[C@H](C5=CC=CC=C5C6=CC=C(C=C6)Cl)O)S(=O)(=O)C(F)(F)F)CCO [AZD4320] (first compound max 1 µM, 7x7, partner max 1 µM) | 0.479 | 0.31 | 1 | 0.297 | 0.844 | 0.58 | 0.747 | 1 | 0.813 | 0.795 | 0.627 |  |  |  |  |  |  |  |  | 
Cc1c2c(nn1C)CSCc1cc(n(C)n1)CSc1cc(c3ccccc3c1)OCCCc1c(C(=O)O)n(C)c3c-2c(Cl)ccc13 [AZD5991] + Cn1cnc2c(F)c(Nc3ccc(Br)cc3Cl)c(C(=O)NOCCO)cc21 [Selumetinib] (first compound max 1 µM, 7x7, partner max 3 µM) | 0.957 | 0.256 | 0.22 | 0.227 | 1 | 0.355 | 0.129 | 0.239 | 0.498 |  | 0.278 | 0.317 | 0.737 | 0.906 | 0.229 | 0.325 | 0.121 | 0.162 | 0.168 | 0.631
CC(=O)c1c(C)c2cnc(Nc3ccc(N4CCNCC4)cn3)nc2n(C2CCCC2)c1=O [Palbociclib] + CN(CC[C@H](CSC1=CC=CC=C1)NC2=C(C=C(C=C2)S(=O)(=O)NC(=O)C3=CC=C(C=C3)N4CCC(CC4)[C@H](C5=CC=CC=C5C6=CC=C(C=C6)Cl)O)S(=O)(=O)C(F)(F)F)CCO [AZD4320] (first compound max 10 µM, 7x7, partner max 1 µM) | 0.208 | 0.293 | 1 | 0.364 | 0.916 | 0.477 | 0.534 | 0.838 | 0.21 | 0.485 | 0.368 |  |  |  |  |  |  |  |  | 
CCN(CCO)CCCOc1ccc2c(Nc3cc(CC(=O)Nc4cccc(F)c4)[nH]n3)ncnc2c1 [AZD2811] + C[C@@H]1COCCN1C2=NC(=NC(=C2)C3(CC3)[S@](=N)(=O)C)C4=C5C=CNC5=NC=C4 [AZD6738] (first compound max 1 µM, 7x7, partner max 10 µM) | 0.424 | 0.405 | 0.929 | 0.604 | 0.99 | 0.558 | 0.736 |  | 0.443 | 0.666 | 0.798 | 0.731 | 0.992 | 0.516 | 0.652 | 1 | 0.217 | 0.278 | 0.469 | 0.844
COc1cccc(OCCCN)c1-c1cc(Nc2cnc(C#N)cn2)n[nH]1 [Prexasertib] + C=CCn1c(=O)c2cnc(Nc3ccc(N4CCN(C)CC4)cc3)nc2n1-c1cccc(C(C)(C)O)n1 [AZD1775] (first compound max 1 µM, partner max 1 µM) | 0.882 | 0.644 | 0.655 | 0.748 | 1 | 0.735 | 0.846 |  | 0.726 | 0.893 | 0.985 | 0.866 | 1 | 0.599 | 0.97 | 1 | 0.482 | 0.86 | 0.797 | 0.94
COc1cccc(OCCCN)c1-c1cc(Nc2cnc(C#N)cn2)n[nH]1 [Prexasertib] + O=C(c1cc(Cc2n[nH]c(=O)c3ccccc23)ccc1F)N1CCN(C(=O)C2CC2)CC1 [Olaparib] (first compound max 1 µM, 7x7, partner max 10 µM) | 0.851 | 0.525 | 0.493 | 0.731 | 1 | 0.548 | 0.851 |  | 0.733 | 0.887 | 0.983 | 0.842 | 0.98 | 0.61 | 0.854 | 1 | 0.381 | 0.567 | 0.638 | 0.587
COc1cc2c(cc1OCCCCCOc1cc3c(cc1OC)C(=O)N1C=C(C)C[C@H]1C=N3)N=C[C@@H]1CC(C)=CN1C2=O [SG3199] + O=C(c1cc(Cc2n[nH]c(=O)c3ccccc23)ccc1F)N1CCN(C(=O)C2CC2)CC1 [Olaparib] (first compound max 0.001 µM, 7x7, partner max 10 µM) | 0.0469 | 0.0449 | 0.354 | 0.162 | 0.597 | 0.133 | 0.416 |  | 0.0795 | 0.566 | 0.42 | 0.166 | 0.375 | 0.163 | 0.105 | 0.257 | 0.0759 | 0.0964 | 0.0995 | 0.059
C=CCn1c(=O)c2cnc(Nc3ccc(N4CCN(C)CC4)cc3)nc2n1-c1cccc(C(C)(C)O)n1 [AZD1775] + C[C@@H]1COCCN1C2=NC(=NC(=C2)C3(CC3)[S@](=N)(=O)C)C4=C5C=CNC5=NC=C4 [AZD6738] (first compound max 1 µM, partner max 10 µM) | 0.521 | 0.659 | 0.751 | 0.755 | 1 | 0.661 | 0.787 |  | 0.518 | 0.826 | 0.944 | 0.761 | 1 | 0.51 | 0.911 | 1 | 0.301 | 0.67 | 0.525 | 0.912
C=CCn1c(=O)c2cnc(Nc3ccc(N4CCN(C)CC4)cc3)nc2n1-c1cccc(C(C)(C)O)n1 [AZD1775] + O=C(c1cc(Cc2n[nH]c(=O)c3ccccc23)ccc1F)N1CCN(C(=O)C2CC2)CC1 [Olaparib] (first compound max 1 µM, partner max 10 µM) | 0.251 | 0.279 | 0.642 | 0.461 | 0.999 | 0.399 | 0.77 |  | 0.881 | 0.563 | 0.882 | 0.382 | 0.988 | 0.455 | 0.417 | 1 | 0.173 | 0.307 | 0.257 | 0.566
CCc1c2c(nc3ccc(O)cc13)-c1cc3c(c(=O)n1C2)COC(=O)[C@]3(O)CC [SN-38] + CN(C)CCCOc1ccc(-c2ccc3ncc4c(c3c2)n(C2CCOCC2)c(=O)n4C)cn1 [AZD0156] (first compound max 0.3 µM, 7x7, partner max 1 µM) | 0.96 | 0.496 | 0.728 | 0.743 | 1 | 0.284 | 0.76 |  | 0.171 | 0.947 | 1 | 0.819 | 0.869 | 0.571 | 0.893 | 1 | 0.319 | 0.395 | 0.876 | 0.221
Cc1c2c(nn1C)CSCc1cc(n(C)n1)CSc1cc(c3ccccc3c1)OCCCc1c(C(=O)O)n(C)c3c-2c(Cl)ccc13 [AZD5991] + C=CCn1c(=O)c2cnc(Nc3ccc(N4CCN(C)CC4)cc3)nc2n1-c1cccc(C(C)(C)O)n1 [AZD1775] (first compound max 1 µM, partner max 1 µM) | 0.551 | 0.585 | 0.581 | 0.596 | 1 |  | 0.769 | 0.617 | 0.399 | 0.502 | 0.979 | 0.548 | 1 | 0.793 | 0.432 | 1 | 0.197 | 0.366 | 0.283 | 0.626
CCN(CCO)CCCOc1ccc2c(Nc3cc(CC(=O)Nc4cccc(F)c4)[nH]n3)ncnc2c1 [AZD2811] + O=C(c1cc(Cc2n[nH]c(=O)c3ccccc23)ccc1F)N1CCN(C(=O)C2CC2)CC1 [Olaparib] (first compound max 1 µM, 7x7, partner max 10 µM) | 0.289 | 0.211 | 0.88 | 0.268 | 0.823 | 0.21 | 0.495 |  | 0.137 | 0.47 | 0.454 | 0.25 | 0.788 | 0.394 | 0.0874 | 1 | 0.153 | 0.155 | 0.19 | 0.62
Cc1cc2ncnn2cc1Nc1ncc2c(n1)n(C1CCOCC1)c(=O)n2C [AZD7648] + C=CCn1c(=O)c2cnc(Nc3ccc(N4CCN(C)CC4)cc3)nc2n1-c1cccc(C(C)(C)O)n1 [AZD1775] (first compound max 10 µM, partner max 1 µM) | 0.288 | 0.295 | 0.56 | 0.375 | 1 | 0.4 | 0.775 |  | 0.418 | 0.441 | 0.869 | 0.565 | 0.993 | 0.355 | 0.369 | 1 | 0.242 | 0.275 | 0.551 | 0.512
